In US20230271956A1, “AMIDE DERIVATIVES” (Merck Patent GmbH, priority 2020, published 2023) one finds IC50 data, which are given here for 18 molecules.

Structures are written as SMILES. pIC50: −log10 of the molar value.

For assay [1], the target named is T1, human rec ACSS2 (Homo sapiens, UniProt Q9NR19).
T1 construct: myc (C); purchased Origene
Briefly: Biochemical activity ACSS2 assay (AMP-Glo). Conditions: human recombinant ACSS2, AMP-Glo, 180 min at 37° C. How it is done:
The biochemical activity assay for ACSS2 is based on the detection of released AMP by AMP-Glo ™ Assay kit (Promega, Madison). The assay is run in three steps: the enzymatic reaction in which human rec ACSS2 activates acetate with ATP and Coenzyme A as cosubstrates to acetyI-coA thereby releasing AMP and the detection reaction of AMP by AMP Glo assay in which after the destruction of the residual ATP with AMP Glo reagent 1 produced AMP is converted to ATP that is measured in a luciferase assay system (detection reagent). The ACSS2 activity correlates with the detected luminescence signal.
The assay was performed in Perkin Elmer 384well white Proxiplates in a total volume of 8 µl.
1 nM (fc) C-term myc tagged ACSS2 (human, recombinant, Origene, Rockville, US) and a mixture of 100 µM (fc) ATP, 100 µM (fc) Coenzyme A and 500 µM (fc) sodium acetate were incubated in a total volume of 5 µl (50 mM Hepes, 1 mM Mg-chloride, 150 mM NaCl, 1 mM DTT, 0.01 % (w/v) BSA, 0.3 % DMSO, pH 7.5) in the absence or presence of the test compound (10 dilution concentrations, start conc 30 µM) for 180 min at 37° C. The reaction was stopped and residual ATP destroyed by the addition of 1 µl AMP Glo reagent solution (Promega, Madison, US). After 1 h incubation at room temperature 2 µl of AMP Glo detection reagent was added and the assay was incubated for 0.75 hr at room temperature. The luminescence signal was measured with an Envision multimode reader (Perkin Elmer LAS Germany GmbH) at 700 nm in luminescence mode. The full value used was the inhibitor-free reaction. The pharmacological zero value was generated by addition of ACSS2 inhibitor (Ac-CoA Synthase Inhibitor - CAS 508186-14-9 -Calbiochem) in a final concentration of 5 µM. The inhibitory values (IC50) were determined using the program Assay Analyzer® from GeneData.

Assay [2] has as its target T2, ACSS2 (Homo sapiens, UniProt Q9NR19).
T2 construct: endogenous fatty acid synthesis activity in the human HCT-15 cancer cell line; endogenous in cells; host or cells: HCT-15
The experiment in a line: Cellular assay of 14C acetate incorporation into histones (IC50 ACSS2 cellular histone). As to conditions: HCT-15 cells. Format: cell-based. How it is done:
This protocol describes a cellular assay capable to quantify endogenous histone acetylation activity in the human HCT-15 cancer cell line following the incorporation of extracellularly administered radiolabeled ^14C acetate with a scintillation based read out on acid extracted histones.
HCT-15 cells are trypsinized, washed and suspended in DMEM culture medium supplemented with penicillin/streptomycin (100 U/mL), sodium pyruvate (1 mM), and 10% FBS
Compounds serial dilutions are prepared in 96-well V-bottom microplate from 10 mM stock solutions in DMSO. From these dilutions 0.5 µl are transferred to a fresh plate including pure DMSO as negative control. The dilutions are prepared such, that the final concentration in the assay is 1/400 of the concentration in the serial dilution. The final DMSO concentration in the assay is 0.25 %.
The cell suspension is seeded at densities of 2x10^5 cells per 170 µl into individual wells of a 96 well plate each containing 0.5 µl aliquots of compound serial dilutions and are kept for 1h in a cell incubator. To each well 30 µL of a mixture containing 0.5 mCi/mL of ^14C-acetate with full medium are added. Then, the wells are incubated for 3 hrs in the cell incubator.
Further steps of the procedure should be conducted on ice or instrumentations precooled to 4° C. Cells are sedimented in the 96-well V-bottom microplate by centrifugation (Eppendorf 5804 R) at 1200 rpm for 5 min. The supernatant is removed and the cells are washed twice with 200µL of PBS-NaB (5 mM sodium butyrate) buffer by iterative resuspension and centrifugation. Finally, the cells are resuspended in 50 µL of TEB (PBS-NaB + 0.5 % Triton X-100) and left on ice for 10 minutes. After centrifugation at 2300 rpm for 10 minutes at 4° C. the supernatant is removed, the remaining pellet is suspended in 50 µL of 0.2 M HCl and incubated over night at 4° C. After incubation the well plate is shaken for 2 minutes in a MTP plate shaker set to 1200 rpm and then centrifuged at 3700 rpm for 10 mins. The lysate is carefully aspirated (~43 µL) and transferred into a white MTP plate (Greiner bio-one 65509). 90 µL of Ultima Gold XR scintillation cocktail are added and the plates are sealed with a transparent cover tape before mixing vigorously using plate shaker set to 1200 rpm. Radioactivity from ^14C incorporation in the wells is measured as CPM count in a MicroBeta Trilux luminescence counter.

T1 sequence (Q9NR19 whole entry): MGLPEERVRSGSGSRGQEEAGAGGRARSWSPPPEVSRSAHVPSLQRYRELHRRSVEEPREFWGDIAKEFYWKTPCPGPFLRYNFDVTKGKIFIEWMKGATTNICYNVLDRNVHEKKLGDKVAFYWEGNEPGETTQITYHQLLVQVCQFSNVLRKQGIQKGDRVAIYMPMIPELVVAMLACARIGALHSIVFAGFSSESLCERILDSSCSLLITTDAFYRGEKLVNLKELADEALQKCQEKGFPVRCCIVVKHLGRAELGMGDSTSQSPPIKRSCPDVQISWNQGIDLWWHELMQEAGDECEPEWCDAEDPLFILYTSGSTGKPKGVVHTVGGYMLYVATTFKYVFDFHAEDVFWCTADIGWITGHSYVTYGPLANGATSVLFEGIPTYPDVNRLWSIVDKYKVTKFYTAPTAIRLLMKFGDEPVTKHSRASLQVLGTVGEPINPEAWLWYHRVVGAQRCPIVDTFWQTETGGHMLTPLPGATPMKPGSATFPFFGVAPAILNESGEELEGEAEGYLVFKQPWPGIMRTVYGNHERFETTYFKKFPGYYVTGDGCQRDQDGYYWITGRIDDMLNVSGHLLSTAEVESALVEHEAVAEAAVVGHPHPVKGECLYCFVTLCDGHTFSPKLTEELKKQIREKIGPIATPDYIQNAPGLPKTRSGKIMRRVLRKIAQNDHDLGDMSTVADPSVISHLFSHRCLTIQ
T2 sequence (Q9NR19 whole entry): as above

Broadly, the pIC50 is −log10 of the IC50, conventionally taken in molar units. As for `CCn1cnc(NC(=O)c2cc3c(nc2OC)nc(C(O)(c2ccccc2)c2ccc(OC(F)F)cc2)n3CC)n1` (racemic) [Compound 86, 2-{[4-(difluoromethoxy)phenyl](hydroxy)phenylmethyl}-1-ethyl-N-(1-ethyl-1H-1,2,4-triazol-3-yl)-5-methoxy-1H-imidazo[4,5-b]pyridine-6-carboxamide], the pIC50 in assay [1] and in assay [2] was 8.00 to 9.00 throughout.

Consider `CCn1cc(NC(=O)c2cc3c(nc2Cl)nc(C(O)(c2ccc(OC(F)F)cc2)c2ccccc2F)n3CC)cn1` (racemic) [Compound 85, 5-chloro-2-{[4-(difluoromethoxy)phenyl](2-fluorophenyl)hydroxymethyl}-1-ethyl-N-(1-ethyl-1H-pyrazol-4-yl)-1H-imidazo[4,5-b]pyridine-6-carboxamide], for which the pIC50 in assay [1] and in assay [2] was 7.00 to 8.00 throughout. For `CCn1cnc(NC(=O)c2cc3c(nc2OC)nc(C(O)(c2ccccc2)c2cccnn2)n3CC)n1` (racemic) [Compound 45, 1-ethyl-N-(1-ethyl-1H-1,2,4-triazol-3-yl)-2-[hydroxy(phenyl)(pyridazin-3-yl)methyl]-5-methoxy-1H-imidazo[4,5-b]pyridine-6-carboxamide], the pIC50 in assay [1] and in assay [2] was 8.00 to 9.00 throughout. For `CCn1cnc(NC(=O)c2cc3c(nc2OC)nc(C(O)(c2ccccc2)c2ccn(C)n2)n3CC)n1` (racemic) [Compound 40, 1-ethyl-N-(1-ethyl-1H-1,2,4-triazol-3-yl)-2-[hydroxy(1-methyl-1H-pyrazol-3-yl)phenylmethyl]-5-methoxy-1 H-imidazo[4,5-b]pyridine-6-carboxamide], the pIC50 in assay [1] was 7.00 to 8.00. In the case of `CCn1cnc(NC(=O)c2cc3c(nc2OC)nc(C(O)(c2ccccn2)c2cccs2)n3CC)n1` (racemic) [Compound 43, 1-ethyl-N-(1-ethyl-1H-1,2,4-triazol-3-yl)-2-[hydroxy(pyridin-2-yl)(thiophen-2-yl)methyl]-5-methoxy-1H-imidazo[4,5-b]pyridine-6-carboxamide], the negative-log IC50 (pIC50) in assay [1] and in assay [2] was 7.00 to 8.00 in each case. For the molecule `CCn1cnc(NC(=O)c2cc3c(nc2OC)nc(C(O)(c2ccsc2)c2ccsc2)n3CC)n1` [Compound 38, 1-ethyl-N-(1-ethyl-1H-1,2,4-triazol-3-yl)-2-[hydroxybis(thiophen-3-yl)methyl]-5-methoxy-1H-imidazo[4,5-b]pyridine-6-carboxamide], the pIC50 in assay [1] is 8.00 to 9.00.

As for `CCn1cnc(NC(=O)c2cc3c(nc2OC)nc(C(O)(c2ccccc2F)c2ccc(OC(F)F)cc2F)n3CC)n1` (single isomer, unassigned) [Compound 71], the pIC50 in assay [1] and in assay [2] was 9.00 to 11.00 each time. In the case of `CCn1cnc(NC(=O)c2cc3c(nc2OC)nc(C(O)(c2ccccc2)c2ccccn2)n3CC)n1` (single isomer, unassigned) [Compound 54, 1-ethyl-N-(1-ethyl-1H-1,2,4-triazol-3-yl)-2-[hydroxy(phenyl)(pyridin-2-yl)methyl]-5-methoxy-1H-imidazo[4,5-b]pyridine-6-carboxamide], the pIC50 in assay [1] and in assay [2] was 7.00 to 8.00 throughout. Consider `CCn1cc(NC(=O)c2cc3c(nc2Cl)nc(C(O)(c2ccccc2)c2ccc(OC(F)F)cc2)n3CC)cn1` (racemic) [Compound 84, 5-chloro-2-{[4-(difluoromethoxy)phenyl](hydroxy)phenylmethyl}-1-ethyl-N-(1-ethyl-1H-pyrazol-4-yl)-1H-imidazo[4,5-b]pyridine-6-carboxamide], for which the negative logarithm of the IC50 (pIC50) in assay [1] and in assay [2] was 7.00 to 8.00 throughout. For `CCn1cnc(NC(=O)c2cc3c(nc2OC)nc(C(O)(c2ccccc2)c2ccc4ccccc4n2)n3CC)n1` (racemic) [Compound 35, 1-ethyl-N-(1-ethyl-1H-1,2,4-triazol-3-yl)-2-[hydroxy(phenyl)(quinolin-2-yl)methyl]-5-methoxy-1H-imidazo[4,5-b]pyridine-6-carboxamide], the negative logarithm of the IC50 (pIC50) in assay [1] was 8.00 to 9.00. On the same count and under the same terms, to `CCc1cc2nc(C(O)(c3ccccc3)c3ccccc3)c(CC)n2cc1C(=O)Nc1ncn(CC)n1` (racemic) [Compound 33, 3,7-diethyl-N-(1-ethyl-1H-1,2,4-triazol-3-yl)-2-(hydroxydiphenylmethyl)imidazo[1,2-a]pyridine-6-carboxamide] belongs 7.00 to 8.00. On the same count and under the same terms, to `CCc1c(C(O)(c2ccccc2)c2ccc(C)s2)nc2cc(OC)c(C(=O)Nc3ncn(CC)n3)cn12` (single isomer, unassigned) [Compound 26, 3-Ethyl-2-[hydroxy-(5-methyl-thiophen-2-yl)-phenyl-methyl]-7-methoxy-imidazo[1,2-a]pyridine-6-carboxylic acid (1-ethyl-1H-[1,2,4]triazol-3-yl)-amide] belongs 5.00 to 7.00; to `CCn1cnc(NC(=O)c2cc3c(nc2OC)nc(C(O)(c2ccccc2)c2ccccc2C)n3CC)n1` (racemic) [Compound 56, 1-ethyl-N-(1-ethyl-1H-1,2,4-triazol-3-yl)-2-[hydroxy(2-methylphenyl)phenylmethyl]-5-methoxy-1H-imidazo[4,5-b]pyridine-6-carboxamide], 8.00 to 9.00. Still for that read-out and setting: to `CCn1cnc(NC(=O)c2cc3c(nc2OC)nc(C(O)(c2ccccc2)c2ccsc2)n3CC)n1` (racemic) [Compound 39, 1-ethyl-N-(1-ethyl-1H-1,2,4-triazol-3-yl)-2-[hydroxy(phenyl)(thiophen-3-yl)methyl]-5-methoxy-1H-imidazo[4,5-b]pyridine-6-carboxamide] belongs 8.00 to 9.00; to `CCc1c(C(O)(c2ccccc2)c2nccs2)nc2cc(OC)c(C(=O)Nc3ncn(CC)n3)cn12` (racemic) [Compound 32, 3-ethyl-N-(1-ethyl-1H-1,2,4-triazol-3-yl)-2-[hydroxy(phenyl)(1,3-thiazol-2-yl)methyl]-7-methoxyimidazo[1,2-a]pyridine-6-carboxamide], 7.00 to 8.00; to `[2H]c1c([2H])c([2H])c(C(O)(c2c([2H])c([2H])c([2H])c([2H])c2[2H])c2nc3nc(OC)c(C(=O)Nc4ncn(CC)n4)cc3n2CC)c([2H])c1[2H]` [Compound 37, 1-ethyl-N-(1-ethyl-1H-1,2,4-triazol-3-yl)-2-{hydroxybis[(2,3,4,5,6-^2H5)phenyl]methyl}-5-methoxy-1 H-imidazo[4,5-b]pyridine-6-carboxamide], 9.00 to 11.00.

`CCn1cnc(NC(=O)c2cc3c(nc2OC)nc(C(O)(c2ccccc2)c2ccccc2)n3C)n1` [Compound 36, N-(1-ethyl-1H-1,2,4-triazol-3-yl)-2-(hydroxydiphenylmethyl)-5-methoxy-1-methyl-1H-imidazo[4,5-b]pyridine-6-carboxamide]: in assay [1], the pIC50 was 9.00 to 11.00. On the same count and under the same terms, to `CCc1c(C(O)(c2ccccc2)c2ccc(C)s2)nc2cc(OC)c(C(=O)Nc3ncn(CC)n3)cn12` (single isomer, unassigned) [Compound 27, 3-Ethyl-2-[hydroxy-(5-methyl-thiophen-2-yl)-phenyl-methyl]-7-methoxy-imidazo[1,2-a]pyridine-6-carboxylic acid (1-ethyl-1H-[1,2,4]triazol-3-yl)-amide] belongs 8.00 to 9.00.
